For test [1], the target named is CTX-M-14 (Escherichia coli, UniProt Q9L5C7). Briefly: Inhibitory activity on SBL, fluorescent substrate FC-5. The format is biochemical. To be noted: for inhibitory activity on CTX-M-14 compared to avibactam: comparison in words.
The target in test [2] is AmpC (UniProt P24735). The description is as above.
The target in test [3] is NDM-1 (Klebsiella pneumoniae, UniProt C7C422). Put plainly: Inhibitory activity on MBL, fluorescent substrate FC-5. It is filed as biochemical.
The target of test [4] is VIM-2 (Escherichia coli, UniProt Q5U7L7). Described as above. It is filed as biochemical.
The target in test [5] is OXA-48 (Klebsiella pneumoniae, UniProt Q6XEC0). Put plainly: Inhibitory activity on SBL, fluorescent substrate FC-5. The format is biochemical. To be noted: for inhibitory activity on OXA-48 compared to avibactam: comparison in words.
Test [6] concerns the target KPC-2 (Klebsiella pneumoniae, UniProt Q9F663). The test is described as above. It is filed as biochemical. To be noted: for inhibitory activity on KPC-2 compared to avibactam: comparison in words.
Test [7] addresses T1, SHV-12 (UniProt P0AD64, L31Q/G234S/E235K, species not given).
T1 sequence (P0AD64 1-286 L31Q/G234S/E235K): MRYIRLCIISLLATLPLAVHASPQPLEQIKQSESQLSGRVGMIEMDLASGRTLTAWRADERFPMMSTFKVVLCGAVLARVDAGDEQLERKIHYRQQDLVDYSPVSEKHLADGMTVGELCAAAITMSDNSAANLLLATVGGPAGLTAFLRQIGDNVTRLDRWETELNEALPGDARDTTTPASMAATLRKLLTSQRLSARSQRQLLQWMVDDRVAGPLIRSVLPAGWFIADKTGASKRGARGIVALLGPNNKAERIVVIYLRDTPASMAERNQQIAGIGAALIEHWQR
Described as above. The format is biochemical. To be noted: for inhibitory activity on SHV-12 compared to control drugs: comparison in words.

Test [8] has as its target NDM-5 (Klebsiella pneumoniae, UniProt C7C422, M154L/V88L). Put plainly: Inhibitory activity on MBL, fluorescent substrate FC-5. The format is biochemical.
Test [9] deals with IMP-1 (Serratia marcescens, UniProt P52699). The description is as above. The format is biochemical.
For test [10], the target named is VIM-1 (Pseudomonas aeruginosa, UniProt A0A0F7KYQ8). The description is as above. It is filed as biochemical.
Test [11] has as its target TEM-1 (Escherichia coli, UniProt P62593). Put plainly: Inhibitory activity on SBL, fluorescent substrate FC-5. It is filed as biochemical. To be noted: for inhibitory activity on TEM-1 compared to avibactam: comparison in words; for IC50: read-out: Inhibitory activity on SBL TEM-1 (IC50 class).
Test [12] deals with Escherichia coli expressing IMP-1. Briefly: Antibacterial activity in combination with meropenem (MIC), clinically isolated strains. It is filed as cell-based. To be noted: clinical isolate EC1541 (blaIMP-1), compound final concentration 10 μM.
Test [13] deals with Klebsiella pneumoniae expressing KPC-2. The description is as above. To be noted: compound final concentration 10 μM.
Setting [14] is: read-out: Inhibitory activity on SBL CTX-M-14 (IC50 class).
[15] abbreviates: read-out: Inhibitory activity on SBL AmpC (IC50 class).
[16] abbreviates: read-out: Inhibitory activity on MBL NDM-1 (IC50 class).
Setting [17] is: read-out: Inhibitory activity on MBL VIM-2 (IC50 class).
The mark [18] stands for this setting: read-out: Inhibitory activity on SBL OXA-48 (IC50 class).
Where [19] appears, read: read-out: Inhibitory activity on SBL KPC-2 (IC50 class).
Setting [20] is: read-out: Inhibitory activity on SBL SHV-12 (IC50 class).
Setting [21] is: read-out: Inhibitory activity on MBL NDM-5 (IC50 class).
The mark [22] stands for this setting: read-out: Inhibitory activity on MBL IMP-1 (IC50 class).
Where [23] appears, read: read-out: Inhibitory activity on MBL VIM-1 (IC50 class).
The mark [24] stands for this setting: read-out: inhibitory activity at a nanomolar-level on NDM-1.
Setting [25] is: read-out: inhibitory activity at a nanomolar-level on NDM-5.
Where [26] appears, read: VIM-1 and/or VIM-2, read-out: inhibitory activity at a nanomolar-level on VIM-1 and/or VIM-2.

Like-named read-outs stand apart in the source and are kept apart here.

Chain of IMP-1 (P52699 19-246 limits assumed): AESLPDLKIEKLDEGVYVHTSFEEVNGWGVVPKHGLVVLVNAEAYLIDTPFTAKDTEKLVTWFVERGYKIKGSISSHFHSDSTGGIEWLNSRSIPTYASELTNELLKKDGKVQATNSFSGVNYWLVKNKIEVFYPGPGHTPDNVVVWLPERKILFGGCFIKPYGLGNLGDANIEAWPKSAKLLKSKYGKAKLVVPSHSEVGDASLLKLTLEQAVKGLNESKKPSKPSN
Chain of CTX-M-14 (Q9L5C7 entry or part of it): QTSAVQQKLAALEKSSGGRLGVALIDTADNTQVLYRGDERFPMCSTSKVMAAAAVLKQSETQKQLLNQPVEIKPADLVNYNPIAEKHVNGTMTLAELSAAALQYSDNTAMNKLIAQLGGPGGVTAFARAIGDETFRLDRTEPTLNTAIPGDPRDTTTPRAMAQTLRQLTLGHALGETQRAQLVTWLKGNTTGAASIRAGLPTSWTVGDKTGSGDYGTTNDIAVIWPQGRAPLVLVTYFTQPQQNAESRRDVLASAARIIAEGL
Chain of NDM-1 (C7C422 29-270 limits assumed): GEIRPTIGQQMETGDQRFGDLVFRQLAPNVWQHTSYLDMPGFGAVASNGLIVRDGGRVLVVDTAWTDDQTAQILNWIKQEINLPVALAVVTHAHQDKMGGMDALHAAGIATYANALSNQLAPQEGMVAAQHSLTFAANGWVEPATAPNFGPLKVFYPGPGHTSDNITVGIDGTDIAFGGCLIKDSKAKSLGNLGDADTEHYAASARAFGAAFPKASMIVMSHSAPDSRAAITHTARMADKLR
Chain of KPC-2 (Q9F663 25-293 limits assumed): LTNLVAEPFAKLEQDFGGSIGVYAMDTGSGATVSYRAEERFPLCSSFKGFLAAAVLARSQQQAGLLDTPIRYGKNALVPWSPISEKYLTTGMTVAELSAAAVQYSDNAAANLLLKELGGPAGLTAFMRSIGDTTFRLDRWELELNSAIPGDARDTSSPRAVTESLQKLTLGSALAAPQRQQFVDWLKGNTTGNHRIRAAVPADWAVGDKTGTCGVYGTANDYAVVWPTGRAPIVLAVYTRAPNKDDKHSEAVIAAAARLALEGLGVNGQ
Chain of OXA-48 (Q6XEC0 23-265 limits assumed): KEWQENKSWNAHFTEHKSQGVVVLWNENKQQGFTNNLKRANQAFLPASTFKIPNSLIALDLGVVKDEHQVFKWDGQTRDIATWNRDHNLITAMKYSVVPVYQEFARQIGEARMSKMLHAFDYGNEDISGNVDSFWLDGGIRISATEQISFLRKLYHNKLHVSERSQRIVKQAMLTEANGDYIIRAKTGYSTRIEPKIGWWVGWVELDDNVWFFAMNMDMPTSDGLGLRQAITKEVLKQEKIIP
Chain of NDM-5 (C7C422 29-270 V88L/M154L): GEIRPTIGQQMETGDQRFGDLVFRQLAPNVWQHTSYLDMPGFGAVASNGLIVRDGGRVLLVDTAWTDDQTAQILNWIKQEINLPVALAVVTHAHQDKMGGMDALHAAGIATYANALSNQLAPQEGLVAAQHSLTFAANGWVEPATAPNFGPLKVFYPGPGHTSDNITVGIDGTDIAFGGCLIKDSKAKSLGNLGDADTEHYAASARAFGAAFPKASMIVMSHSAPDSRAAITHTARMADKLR
Chain of TEM-1 (P62593 24-286 limits assumed): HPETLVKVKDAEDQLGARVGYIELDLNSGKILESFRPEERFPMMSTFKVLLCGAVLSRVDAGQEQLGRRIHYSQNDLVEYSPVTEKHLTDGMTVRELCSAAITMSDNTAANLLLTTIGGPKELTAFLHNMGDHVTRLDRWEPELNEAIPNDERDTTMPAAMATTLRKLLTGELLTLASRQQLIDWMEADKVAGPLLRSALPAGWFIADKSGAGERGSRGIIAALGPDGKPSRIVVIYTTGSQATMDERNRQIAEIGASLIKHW

Regarding `O=C(O)c1c(CNc2nncs2)ccc2c1OB(O)CC2` [Comparative example 1 compound 64, reference compound], the IC50 in test [1] (setting [14]) is 10 to 1000 nM; in test [1] (unit inferred, read-out: CTX-M-14, number in parentheses under the class symbol), 63 nM; in [2] (read-out: AmpC, number in parentheses under the class symbol, unit inferred) it was 7500 nM; in [2] (setting [15]) it was 1000 to 100000 nM; in [3] it was 3230 nM; in [3] (setting [16]), 1000 to 100000 nM. The IC50 in test [4] (setting [17]) is 1000 to 100000 nM; in [4] (unit inferred, read-out: VIM-2, number in parentheses under the class symbol), 8100 nM; in test [5] (setting [18]), 10 to 1000 nM; in test [5] (unit inferred, read-out: OXA-48, number in parentheses under the class symbol) it was 154 nM; in test [6] (setting [19]), 10 to 1000 nM; in [6] (unit inferred, read-out: KPC-2, number in parentheses under the class symbol), 65 nM. For the same compound, the IC50 in test [7] (setting [20]) is 1000 to 100000 nM; in test [7] (unit inferred, read-out: SHV-12, number in parentheses under the class symbol) it was 1580 nM; in test [8] (setting [21]), 1000 to 100000 nM; in [8] (unit inferred, read-out: NDM-5, number in parentheses under the class symbol), 3230 nM; in test [9] (setting [22]) it was over 100000 nM; in [9] (unit inferred, read-out: IMP-1, number in parentheses under the class symbol), 103000 nM. The IC50 in test [10] (setting [23]) was 1000 to 100000 nM; in [10] (unit inferred, read-out: VIM-1, number in parentheses under the class symbol), 5500 nM.

Take `NC(=O)N1Cc2cn(Cc3ccc4c(c3C(=O)O)OB(O)CC4)nc2C1` [Compound 73]: the “inhibitory activity on CTX-M-14 compared to avibactam” value in [1] is “better or comparable”. Also, the IC50 in test [1] (setting [14]) is 10 to 1000 nM; in test [11], under 10 nM; in [2] (setting [15]) it was 10 to 1000 nM; in test [3] (setting [16]), 10 to 1000 nM; in [3] (setting [24]), under 1000 nM; in test [4] (setting [17]) it was 10 to 1000 nM. For the same compound, the IC50 in test [5] (setting [18]) was 10 to 1000 nM; in test [6] (setting [19]), under 10 nM; in test [7] (setting [20]) it was under 10 nM; in [8] (setting [21]), 10 to 1000 nM; in [8] (setting [25]) it was under 1000 nM; in test [9] (setting [22]), 10 to 1000 nM. In addition, the results for the IC50 in test [10] (setting [26]) and in [10] (setting [23]) were under 1000 nM and 10 to 1000 nM, respectively. Besides, the “inhibitory activity on TEM-1 compared to avibactam” value in [11] was “better or comparable”. Besides, the “inhibitory activity on OXA-48 compared to avibactam” value in test [5] was “better or comparable”. Further, the “inhibitory activity on KPC-2 compared to avibactam” value in test [6] is given as “better or comparable”. Besides, the “inhibitory activity on SHV-12 compared to control drugs” value in test [7] is “comparable to avibactam and tazobactam and superior to taniborbactam”.

On to `CN1Cc2cn(Cc3ccc4c(c3C(=O)O)OB(O)CC4)nc2C1` [Compound 74], for which the “inhibitory activity on CTX-M-14 compared to avibactam” value in [1] is given as “better or comparable”. For the same compound, the IC50 is 10 to 1000 nM in test [1] (setting [14]); under 10 nM in [11]; 10 to 1000 nM in test [2] (setting [15]); 10 to 1000 nM in test [3] (setting [16]); under 1000 nM in [3] (setting [24]); 10 to 1000 nM in test [4] (setting [17]). Also, the IC50 in test [5] (setting [18]) is 10 to 1000 nM; in test [6] (setting [19]) it was under 10 nM; in test [7] (setting [20]), under 10 nM; in [8] (setting [21]), 10 to 1000 nM; in test [8] (setting [25]), under 1000 nM; in test [9] (setting [22]), 10 to 1000 nM. Also, the IC50 in test [10] (setting [26]) was under 1000 nM; in test [10] (setting [23]), 10 to 1000 nM. In addition, the “inhibitory activity on TEM-1 compared to avibactam” value in test [11] is recorded as “better or comparable”. The “inhibitory activity on OXA-48 compared to avibactam” value in test [5] is recorded as “better or comparable”. For the same compound, in [6], the “inhibitory activity on KPC-2 compared to avibactam” value is on record as “better or comparable”. Further, in test [7], the “inhibitory activity on SHV-12 compared to control drugs” value was “comparable to avibactam and tazobactam and superior to taniborbactam”.

In the case of `NCCN[C@H]1CC[C@H](CC(=O)N[C@H]2Cc3cccc(C(=O)O)c3OB2O)CC1` [Taniborbactam, reference compound], the IC50 in test [1] (setting [14]) was 10 to 1000 nM; in test [4] (setting [17]) it was under 10 nM; in [5] (setting [18]) it was 10 to 1000 nM; in test [6] (setting [19]), 10 to 1000 nM; in test [9] (setting [22]) it was 1000 to 100000 nM; in test [10] (setting [23]) it was 10 to 1000 nM. Moreover, the “MIC value of compounds in combination with meropenem, EC1541 (blaIMP-1)” value in test [12] is listed as “++++ (++++ indicates MIC < 4 μg/ml)”. In [13] (clinical isolate KP090344 (blaKPC-2)), the “MIC value of compounds in combination with meropenem, KP090344 (blaKPC-2)” value is on record as “++++ (++++ indicates MIC < 4 μg/ml)”. Further, the “MIC value of compounds in combination with meropenem, KP140508 (blaKPC-2)” value in test [13] (clinical isolate KP140508 (blaKPC-2)) is “++++ (++++ indicates MIC < 4 μg/ml)”. For the same compound, in test [13] (clinical isolate KP140912 (blaKPC-2)), the “MIC value of compounds in combination with meropenem, KP140912 (blaKPC-2)” value is on record as “++++ (++++ indicates MIC < 4 μg/ml)”.

The record behind these values is patent US20250205259A1, “CLASS OF 7-((FIVE-MEMBERED HETEROCYCLIC)METHYL)-8-CARBOXYLIC ACID-BENZO CYCLIC BORATE DERIVATIVES AND USES THEREOF” (priority 2022, published 2025).
